Molecules are shown by their SMILES.

Regarding `CC1(Oc2ccc(Oc3ccccc3)cc2)C(=O)NC(=O)NC1=O`, the melting point (commonly the temperature of the solid-liquid transition) is 182 °C.
Turning to `CC1(Oc2cccc(-c3ccccc3)c2)C(=O)NC(=O)NC1=O`, the melting point amounted to 175 °C.
As for `CC1(Oc2ccc(-c3ccccc3)cc2)C(=O)NC(=O)NC1=O`, the figure is 200 to 202 °C.
As for `CC1(Oc2ccc(Oc3ccc(F)cc3)cc2)C(=O)NC(=O)NC1=O`, the figure is 187 to 189 °C; as for `CCCCC1(Oc2ccc(Oc3ccccc3)cc2)C(=O)NC(=O)NC1=O`, 59 to 60 °C.
To `CCCCC1(Oc2ccc(Oc3ccc(F)cc3)cc2)C(=O)NC(=O)NC1=O` belongs 183 °C.

The values are drawn from patent US6579982B1, “Pyrimidine-2,4,6-trione metalloproteinase inhibitors” (Pfizer Inc., priority 1999, dated 2003).
